Experimental data published in PubChem BioAssay (NCI).
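Cells were grown in 96-well plates and exposed to each compound for 48 hours at five concentrations; endpoints were interpolated linearly between bracketing concentrations, or set to the highest concentration if not reached. GI50: concentration for 50% inhibition of growth. The concentration for full growth arrest is given as TGI.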

Key:
Assay in all cases: inhibition of tumour cell growth, NCI panel, 48 h
SF-295 CNS = test system: SF-295 CNS
DU-145 prostate = test system: DU-145 prostate
SK-MEL-28 melanoma = test system: SK-MEL-28 melanoma
NCI-H23 lung = test system: NCI-H23 lung
HT29 colon = test system: HT29 colon
HCT-15 colon = test system: HCT-15 colon
ACHN renal = test system: ACHN renal
MALME-3M melanoma = test system: MALME-3M melanoma
RXF 393 renal = test system: RXF 393 renal
IGROV1 ovarian = test system: IGROV1 ovarian

OC(Cc1ccncc1)C(Cl)(Cl)Cl (stereo unspecified) was tested, and the GI50 (SF-295 CNS) was 7.83 µM, the TGI (SF-295 CNS) was > 100 µM and the GI50 (DU-145 prostate) was > 100 µM. For the same compound, the TGI (DU-145 prostate) was > 100 µM, the GI50 (SK-MEL-28 melanoma) was > 100 µM and the TGI (SK-MEL-28 melanoma) was > 100 µM. For the same compound, the GI50 (NCI-H23 lung) was 76.3 µM, the TGI (NCI-H23 lung) was > 100 µM and the GI50 (HT29 colon) was > 100 µM. For the same compound, the TGI (HT29 colon) was > 100 µM, the GI50 (HCT-15 colon) was > 100 µM and the TGI (HCT-15 colon) was > 100 µM. For the same compound, the GI50 (ACHN renal) was > 100 µM, the TGI (ACHN renal) was > 100 µM and the GI50 (MALME-3M melanoma) was > 100 µM. The TGI (MALME-3M melanoma) was > 100 µM, the GI50 (RXF 393 renal) was > 100 µM and the TGI (RXF 393 renal) was > 100 µM.

CCOC(=O)C12CCCC1(O)N(NC(=O)OC(C)(C)C)C(C)=C2C(=O)OC (stereo unspecified) was tested, and the TGI (SF-295 CNS) was > 100 µM, the TGI (NCI-H23 lung) was > 100 µM and the TGI (HT29 colon) was > 100 µM. The TGI (HCT-15 colon) was > 100 µM, the TGI (ACHN renal) was > 100 µM and the TGI (IGROV1 ovarian) was > 100 µM. For the same compound, the TGI (MALME-3M melanoma) was > 100 µM.

For CCc1ccccc1NC(=O)C1=C(C)NC(C)=C(C(=O)Nc2ccccc2CC)C1c1ccccc1Cl, the TGI (SF-295 CNS) was > 100 µM, the TGI (SK-MEL-28 melanoma) was > 100 µM and the TGI (NCI-H23 lung) was > 100 µM. For the same compound, the TGI (HT29 colon) was > 100 µM, the TGI (ACHN renal) was > 100 µM and the TGI (IGROV1 ovarian) was > 100 µM. For the same compound, the TGI (MALME-3M melanoma) was > 100 µM and the TGI (RXF 393 renal) was > 100 µM.

In the case of O=C(O)CCCSC(=O)Nc1ccc(N=Nc2ccccc2)cc1, the TGI (SF-295 CNS) is reported as > 100 µM, the TGI (SK-MEL-28 melanoma) is reported as > 100 µM and the TGI (NCI-H23 lung) is reported as > 100 µM. The TGI (HT29 colon) was > 100 µM, the TGI (HCT-15 colon) was > 100 µM and the TGI (ACHN renal) was > 100 µM. For the same compound, the TGI (RXF 393 renal) was > 100 µM.

In the case of CCOC(=O)c1nn2c(nc1=O)sc1ccc3ccccc3c12, the TGI (SF-295 CNS) is reported as > 100 µM, the TGI (SK-MEL-28 melanoma) is reported as > 100 µM and the TGI (NCI-H23 lung) is reported as > 100 µM. For the same compound, the TGI (HT29 colon) was > 100 µM, the TGI (HCT-15 colon) was > 100 µM and the TGI (ACHN renal) was > 100 µM. The TGI (IGROV1 ovarian) was > 100 µM, the TGI (MALME-3M melanoma) was > 100 µM and the TGI (RXF 393 renal) was > 100 µM.

Compound COC1=C(N)C(=O)c2nc(C)ccc2C1=O has a TGI (SF-295 CNS) of 3.18 µM, a TGI (SK-MEL-28 melanoma) of 3.27 µM and a TGI (NCI-H23 lung) of 2.95 µM. It also gave a TGI (HT29 colon) of 3.74 µM, a TGI (HCT-15 colon) of 3.49 µM and a TGI (ACHN renal) of 3.27 µM. For the same compound, the TGI (IGROV1 ovarian) was 23.3 µM, the TGI (MALME-3M melanoma) was 3.18 µM and the TGI (RXF 393 renal) was 3.08 µM.

For N.N.N.N.[Co+3].[N-]=[N+]=[N-].[N-]=[N+]=[N-].[N-]=[N+]=[N-], the GI50 (SF-295 CNS) was > 100 µM, the TGI (SF-295 CNS) was > 100 µM and the GI50 (SK-MEL-28 melanoma) was 47.1 µM. The TGI (SK-MEL-28 melanoma) was > 100 µM, the GI50 (NCI-H23 lung) was > 100 µM and the TGI (NCI-H23 lung) was > 100 µM. The GI50 (HT29 colon) was > 100 µM, the TGI (HT29 colon) was > 100 µM and the GI50 (HCT-15 colon) was > 100 µM. For the same compound, the TGI (HCT-15 colon) was > 100 µM, the GI50 (ACHN renal) was 52 µM and the TGI (ACHN renal) was > 100 µM. For the same compound, the GI50 (IGROV1 ovarian) was > 100 µM, the TGI (IGROV1 ovarian) was > 100 µM and the GI50 (MALME-3M melanoma) was 78.1 µM. For the same compound, the TGI (MALME-3M melanoma) was > 100 µM.

For O=C1CC(O)CC(=O)C1=C(O)CCCCCCCCCCc1ccccc1 (stereo unspecified), the TGI (SF-295 CNS) was > 100 µM, the TGI (SK-MEL-28 melanoma) was > 100 µM and the TGI (NCI-H23 lung) was > 100 µM. For the same compound, the TGI (HT29 colon) was > 100 µM, the TGI (ACHN renal) was > 100 µM and the TGI (IGROV1 ovarian) was > 100 µM. For the same compound, the TGI (RXF 393 renal) was > 100 µM.

In the case of C[C@]12C[C@H](CCCCCCNCCOC(=O)NCCCc3ccc(N(CCCl)CCCl)cc3)C3=C4CCC(=O)C=C4CCC3C1CC[C@@H]2O (stereo partly specified), the GI50 (SF-295 CNS) is reported as 2.07 µM, the TGI (SF-295 CNS) is reported as > 100 µM and the GI50 (DU-145 prostate) is reported as 0.454 µM. It also gave a TGI (DU-145 prostate) of 1.93 µM, a GI50 (NCI-H23 lung) of 1.54 µM and a TGI (NCI-H23 lung) of 3.01 µM. The GI50 (IGROV1 ovarian) was 0.334 µM, the TGI (IGROV1 ovarian) was 2.11 µM and the GI50 (MALME-3M melanoma) was 2.29 µM. For the same compound, the TGI (MALME-3M melanoma) was 5.15 µM, the GI50 (RXF 393 renal) was 0.294 µM and the TGI (RXF 393 renal) was 1.21 µM.

N.N.N.N.N.NC(=O)c1nn[n-]n1.[Cl-].[Co+3] was tested, and the GI50 (SF-295 CNS) was > 100 µM, the TGI (SF-295 CNS) was > 100 µM and the GI50 (SK-MEL-28 melanoma) was > 100 µM. For the same compound, the TGI (SK-MEL-28 melanoma) was > 100 µM, the GI50 (NCI-H23 lung) was > 100 µM and the TGI (NCI-H23 lung) was > 100 µM. For the same compound, the GI50 (HT29 colon) was > 100 µM, the TGI (HT29 colon) was > 100 µM and the GI50 (HCT-15 colon) was > 100 µM. The TGI (HCT-15 colon) was > 100 µM, the GI50 (ACHN renal) was > 100 µM and the TGI (ACHN renal) was > 100 µM. For the same compound, the GI50 (IGROV1 ovarian) was > 100 µM, the TGI (IGROV1 ovarian) was > 100 µM and the GI50 (MALME-3M melanoma) was > 100 µM. The TGI (MALME-3M melanoma) was > 100 µM, the GI50 (RXF 393 renal) was > 100 µM and the TGI (RXF 393 renal) was > 100 µM.
